Experimental data taken from patent US11130793B2, “GLP-1/GLP-2 dual agonists” (Zealand Pharma A/S, priority 2016, dated 2021).
Where two headings read alike, the source gives them in different places. Square brackets hold non-standard residues; d marks the D form. Peptide text beside a SMILES is read from it. Aib = CC(C)(N)C(=O)O

Tests used:
human GLP-1 receptor = target: T1, human GLP-1 receptor (Homo sapiens, UniProt P43220); assay: GLP-1 receptor potency assay (cAMP AlphaScreen, HEK293 cells stably expressing GLP-1R); assay type: cell-based; settings: cAMP response, HEK293 cells expressing human GLP-1R; read-out: EC50 GLP-1
T1 construct: expressed in transfected cells
Procedure, shortened: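 A HEK293 clone stably expressing cloned human GLP-1R (G418-selected) was stimulated with compound. Intracellular cAMP was measured by AlphaScreen. Responses were normalized to positive and vehicle controls, and EC50 and maximal response were fitted by 4-parameter logistic regression.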

human GLP-2 receptor = target: T2, human GLP-2 receptor (Homo sapiens, UniProt O95838, D470N); assay: GLP-2 receptor potency assay (cAMP AlphaScreen, HEK293 cells stably expressing GLP-2R); assay type: cell-based; settings: cAMP response, HEK293 cells expressing human GLP-2R
T2 sequence (O95838 1-553 D470N): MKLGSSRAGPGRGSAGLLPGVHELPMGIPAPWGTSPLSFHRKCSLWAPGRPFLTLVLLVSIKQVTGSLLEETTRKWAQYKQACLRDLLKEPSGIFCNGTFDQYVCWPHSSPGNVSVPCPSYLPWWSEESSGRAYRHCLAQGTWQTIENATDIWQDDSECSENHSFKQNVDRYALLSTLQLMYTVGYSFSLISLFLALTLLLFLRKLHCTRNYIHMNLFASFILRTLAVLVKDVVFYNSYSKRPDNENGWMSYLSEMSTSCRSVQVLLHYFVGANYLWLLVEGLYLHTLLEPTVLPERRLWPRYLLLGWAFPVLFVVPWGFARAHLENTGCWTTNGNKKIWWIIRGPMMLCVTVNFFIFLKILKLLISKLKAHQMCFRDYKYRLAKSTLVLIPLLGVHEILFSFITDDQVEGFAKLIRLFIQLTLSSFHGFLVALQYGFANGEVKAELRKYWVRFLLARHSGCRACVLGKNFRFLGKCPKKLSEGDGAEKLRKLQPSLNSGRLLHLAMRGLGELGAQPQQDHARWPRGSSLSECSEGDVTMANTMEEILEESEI
Procedure, shortened: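 HEK293 cells stably expressing human GLP-2R (G418-selected clone); intracellular cAMP measured by AlphaScreen. Responses normalized to positive and vehicle controls; EC50 and maximal response from 4-parameter logistic fit.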

[1] = Solubility assessment by turbidity absorbance at 325 nm; assay type: physicochemical; settings: 1 mg/ml peptide
Description: A stock solution of the test peptide (2 mg/ml; determined from the weighed amount of peptide) in demineralized water adjusted to pH 2.5 with HCl was prepared, and aliquots were diluted 1:1 in 100 mM acetate buffer (pH 4.0 and pH 5.0), 100 mM histidine buffer (pH 6.0 and pH 7.0) and 100 mM phosphate buffer (pH 6.0, pH 7.0 and pH7.5), respectively, and loaded in a standard flat-bottom, non-sterile 96-well UV Microplate. The absorbance of samples (single samples, n=1) at 280 and 325 nm was measured in an absorbance-based plate reader, which was preheated to ambient temperature (typically 25° C.).

[2] = 100 mM acetate buffer pH 4.0, ambient temperature, read-out: Solubility, Acetate buffer pH 4
[3] = 100 mM acetate buffer pH 5.0, ambient temperature, read-out: Solubility, Acetate buffer pH 5
[4] = 100 mM histidine buffer pH 6.0, ambient temperature, read-out: Solubility, Histidine buffer pH 6
[5] = 100 mM histidine buffer pH 7.0, ambient temperature, read-out: Solubility, Histidine buffer pH 7
[6] = 100 mM phosphate buffer pH 6.0, ambient temperature, read-out: Solubility, Phosphate buffer pH 6
[7] = 100 mM phosphate buffer pH 7.0, ambient temperature, read-out: Solubility, Phosphate buffer pH 7
[8] = 100 mM phosphate buffer pH 7.5, ambient temperature, read-out: Solubility, Phosphate buffer pH 7.5

T1 sequence (P43220 24-463): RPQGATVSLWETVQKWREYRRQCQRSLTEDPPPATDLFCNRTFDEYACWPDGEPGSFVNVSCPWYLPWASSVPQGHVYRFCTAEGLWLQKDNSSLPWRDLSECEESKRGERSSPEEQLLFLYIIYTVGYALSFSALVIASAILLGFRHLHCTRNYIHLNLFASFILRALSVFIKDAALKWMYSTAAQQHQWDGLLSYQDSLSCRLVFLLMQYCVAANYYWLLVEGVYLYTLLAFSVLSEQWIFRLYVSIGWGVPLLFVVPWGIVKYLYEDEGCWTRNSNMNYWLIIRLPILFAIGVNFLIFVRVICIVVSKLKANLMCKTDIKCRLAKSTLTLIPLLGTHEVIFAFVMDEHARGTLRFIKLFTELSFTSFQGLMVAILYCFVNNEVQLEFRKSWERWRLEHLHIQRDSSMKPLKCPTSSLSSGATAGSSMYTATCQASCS

| SMILES | EC50 (human GLP-1 receptor) | EC50 (human GLP-2 receptor) | solubility [1, 2] | solubility [1, 3] | solubility [1, 4] | solubility [1, 5] | solubility [1, 6] | solubility [1, 7] | solubility [1, 8] |
| --- | --- | --- | --- | --- | --- | --- | --- | --- | --- |
| CC[C@H](C)[C@H](NC(=O)[C@H](Cc1ccccc1)NC(=O)[C@H](CC(=O)O)NC(=O)[C@H](CCCNC(=N)N)NC(=O)[C@H](C)NC(=O)[C@H](C)NC(=O)[C@H](CCC(N)=O)NC(=O)[C@H](CCC(=O)O)NC(=O)[C@H](CC(=O)O)NC(=O)[C@H](CC(C)C)NC(=O)[C@@H](NC(=O)[C@@H](NC(=O)[C@H](C)NC(=O)[C@H](CC(C)C)NC(=O)[C@H](CCC(=O)O)NC(=O)[C@H](CO)NC(=O)[C@@H](NC(=O)[C@H](Cc1ccccc1)NC(=O)[C@H](CO)NC(=O)CNC(=O)[C@H](CCC(=O)O)NC(=O)C(C)(C)NC(=O)[C@@H](N)Cc1c[nH]cn1)[C@@H](C)O)[C@@H](C)O)[C@@H](C)CC)C(=O)N[C@@H](C)C(=O)N[C@@H](Cc1c[nH]c2ccccc12)C(=O)N[C@@H](CC(C)C)C(=O)N[C@H](C(=O)N[C@@H](Cc1ccc(O)cc1)C(=O)N[C@@H](Cc1c[nH]cn1)C(=O)N[C@@H](CCCCN)C(=O)N[C@H](C(=O)N[C@H](C(=O)N[C@@H](CC(=O)O)C(=O)O)[C@@H](C)O)[C@@H](C)CC)[C@@H](C)CC [Compound 7] (H-H[Aib]EGSFTSELATILDEQAARDFIAWLIYHKITD-OH) | 0.017 nM | 0.11 nM | ≥ 1000 µg/mL | < 1000 µg/mL | < 1000 µg/mL | ≥ 1000 µg/mL | < 1000 µg/mL | ≥ 1000 µg/mL | ≥ 1000 µg/mL |
| CC[C@H](C)[C@H](NC(=O)[C@H](CC(C)C)NC(=O)[C@H](Cc1c[nH]c2ccccc12)NC(=O)[C@H](C)NC(=O)[C@@H](NC(=O)[C@H](Cc1ccccc1)NC(=O)[C@H](CC(=O)O)NC(=O)[C@H](CCCNC(=N)N)NC(=O)[C@H](C)NC(=O)[C@H](C)NC(=O)[C@H](CCC(N)=O)NC(=O)[C@H](CCC(=O)O)NC(=O)[C@H](CC(=O)O)NC(=O)[C@H](CC(C)C)NC(=O)[C@@H](NC(=O)[C@@H](NC(=O)[C@H](C)NC(=O)[C@H](CC(C)C)NC(=O)[C@H](CCC(=O)O)NC(=O)[C@H](CO)NC(=O)[C@@H](NC(=O)[C@H](Cc1ccccc1)NC(=O)[C@@H](NC(=O)CNC(=O)[C@H](CCC(=O)O)NC(=O)C(C)(C)NC(=O)[C@@H](N)Cc1c[nH]cn1)[C@@H](C)O)[C@@H](C)O)[C@@H](C)O)[C@@H](C)CC)[C@@H](C)CC)C(=O)N[C@@H](C)C(=O)N[C@@H](Cc1c[nH]cn1)C(=O)N[C@@H](CCCCN)C(=O)N[C@H](C(=O)N[C@H](C(=O)N[C@@H](CC(=O)O)C(=O)O)[C@@H](C)O)[C@@H](C)CC [Compound 3] (H-H[Aib]EGTFTSELATILDEQAARDFIAWLIAHKITD-OH) | 0.0074 nM | 0.036 nM | ≥ 1000 µg/mL | < 1000 µg/mL | ≥ 1000 µg/mL | ≥ 1000 µg/mL | ≥ 1000 µg/mL | ≥ 1000 µg/mL | ≥ 1000 µg/mL |
| CC[C@H](C)[C@H](NC(=O)[C@H](Cc1ccccc1)NC(=O)[C@H](CC(=O)O)NC(=O)[C@H](CCCNC(=N)N)NC(=O)[C@H](C)NC(=O)[C@H](C)NC(=O)[C@H](CCC(N)=O)NC(=O)[C@H](CCC(=O)O)NC(=O)[C@H](CC(=O)O)NC(=O)[C@H](CC(C)C)NC(=O)[C@@H](NC(=O)[C@@H](NC(=O)[C@H](C)NC(=O)[C@H](CC(C)C)NC(=O)[C@H](CCC(=O)O)NC(=O)[C@H](CO)NC(=O)[C@@H](NC(=O)[C@H](Cc1ccccc1)NC(=O)[C@H](CO)NC(=O)CNC(=O)[C@H](CCC(=O)O)NC(=O)C(C)(C)NC(=O)[C@@H](N)Cc1c[nH]cn1)[C@@H](C)O)[C@@H](C)O)[C@@H](C)CC)C(=O)N[C@@H](C)C(=O)N[C@@H](Cc1c[nH]c2ccccc12)C(=O)N[C@@H](CC(C)C)C(=O)N[C@H](C(=O)N[C@@H](CC(C)C)C(=O)N[C@@H](Cc1c[nH]cn1)C(=O)N[C@@H](CCCCN)C(=O)N[C@H](C(=O)N[C@H](C(=O)N[C@@H](CC(=O)O)C(=O)O)[C@@H](C)O)[C@@H](C)CC)[C@@H](C)CC [Compound 8] (H-H[Aib]EGSFTSELATILDEQAARDFIAWLILHKITD-OH) | 0.021 nM | 0.084 nM | ≥ 1000 µg/mL | < 1000 µg/mL | < 1000 µg/mL | ≥ 1000 µg/mL | < 1000 µg/mL | ≥ 1000 µg/mL | ≥ 1000 µg/mL |
| CC[C@H](C)[C@H](NC(=O)[C@H](Cc1ccccc1)NC(=O)[C@H](CC(=O)O)NC(=O)[C@H](CCCNC(=N)N)NC(=O)[C@H](C)NC(=O)[C@H](C)NC(=O)[C@H](CCC(N)=O)NC(=O)[C@H](CCC(=O)O)NC(=O)[C@H](CC(=O)O)NC(=O)[C@H](CC(C)C)NC(=O)[C@@H](NC(=O)[C@@H](NC(=O)[C@H](C)NC(=O)[C@H](CC(C)C)NC(=O)[C@H](CCC(=O)O)NC(=O)[C@H](CO)NC(=O)[C@@H](NC(=O)[C@H](Cc1ccccc1)NC(=O)[C@H](CO)NC(=O)CNC(=O)[C@H](CCC(=O)O)NC(=O)C(C)(C)NC(=O)[C@@H](N)Cc1c[nH]cn1)[C@@H](C)O)[C@@H](C)O)[C@@H](C)CC)C(=O)N[C@@H](C)C(=O)N[C@@H](Cc1c[nH]c2ccccc12)C(=O)N[C@@H](CC(C)C)C(=O)N[C@H](C(=O)N[C@@H](CCC(=O)O)C(=O)N[C@@H](Cc1c[nH]cn1)C(=O)N[C@@H](CCCCN)C(=O)N[C@H](C(=O)N[C@H](C(=O)N[C@@H](CC(=O)O)C(=O)O)[C@@H](C)O)[C@@H](C)CC)[C@@H](C)CC [Compound 4] (H-H[Aib]EGSFTSELATILDEQAARDFIAWLIEHKITD-OH) | 0.015 nM | 0.044 nM | ≥ 1000 µg/mL | < 1000 µg/mL | ≥ 1000 µg/mL | ≥ 1000 µg/mL | ≥ 1000 µg/mL | ≥ 1000 µg/mL | ≥ 1000 µg/mL |

Next, values leading:

| EC50 (human GLP-1 receptor) | EC50 (human GLP-2 receptor) | solubility [1, 2] | solubility [1, 3] | solubility [1, 4] | solubility [1, 5] | solubility [1, 6] | solubility [1, 7] | solubility [1, 8] | SMILES |
| --- | --- | --- | --- | --- | --- | --- | --- | --- | --- |
| 0.11 nM | 0.024 nM |  |  |  |  |  |  |  | CC[C@H](C)[C@H](NC(=O)[C@H](Cc1ccccc1)NC(=O)[C@H](CC(=O)O)NC(=O)[C@H](CCCNC(=N)N)NC(=O)[C@H](C)NC(=O)[C@H](C)NC(=O)[C@H](CCC(N)=O)NC(=O)[C@H](CCC(=O)O)NC(=O)[C@H](CC(=O)O)NC(=O)[C@H](CC(C)C)NC(=O)[C@@H](NC(=O)[C@@H](NC(=O)[C@H](C)NC(=O)[C@H](CC(C)C)NC(=O)[C@H](CCC(=O)O)NC(=O)[C@H](CO)NC(=O)[C@@H](NC(=O)[C@H](Cc1ccccc1)NC(=O)[C@H](CO)NC(=O)CNC(=O)[C@H](CCC(=O)O)NC(=O)C(C)(C)NC(=O)[C@@H](N)Cc1c[nH]cn1)[C@@H](C)O)[C@@H](C)O)[C@@H](C)CC)C(=O)N[C@@H](C)C(=O)N[C@@H](Cc1c[nH]c2ccccc12)C(=O)N[C@@H](CC(C)C)C(=O)N[C@@H](Cc1ccc(O)cc1)C(=O)N[C@@H](C)C(=O)N[C@@H](Cc1c[nH]cn1)C(=O)N[C@@H](CCCCN)C(=O)N[C@H](C(=O)N[C@H](C(=O)N[C@@H](CC(=O)O)C(=O)O)[C@@H](C)O)[C@@H](C)CC [Compound 28] (H-H[Aib]EGSFTSELATILDEQAARDFIAWLYAHKITD-OH) |
| 0.007 nM | 0.11 nM |  |  |  |  |  |  |  | CC[C@H](C)[C@H](NC(=O)[C@H](Cc1ccccc1)NC(=O)[C@H](CC(=O)O)NC(=O)[C@H](CCCNC(=N)N)NC(=O)[C@H](C)NC(=O)[C@H](C)NC(=O)[C@H](CCC(N)=O)NC(=O)[C@H](CCC(=O)O)NC(=O)[C@H](CC(=O)O)NC(=O)[C@H](CC(C)C)NC(=O)[C@@H](NC(=O)[C@@H](NC(=O)[C@H](C)NC(=O)[C@H](CC(C)C)NC(=O)[C@H](CCC(=O)O)NC(=O)[C@H](CO)NC(=O)[C@@H](NC(=O)[C@H](Cc1ccccc1)NC(=O)[C@@H](NC(=O)CNC(=O)[C@H](CCC(=O)O)NC(=O)C(C)(C)NC(=O)[C@@H](N)Cc1c[nH]cn1)[C@@H](C)O)[C@@H](C)O)[C@@H](C)O)[C@@H](C)CC)C(=O)N[C@@H](CC(N)=O)C(=O)N[C@@H](Cc1c[nH]c2ccccc12)C(=O)N[C@@H](CC(C)C)C(=O)N[C@@H](CCCCN)C(=O)N[C@@H](CO)C(=O)N[C@@H](Cc1ccc(O)cc1)C(=O)N[C@@H](CCCCN)C(=O)N[C@H](C(=O)N[C@H](C(=O)N[C@@H](CC(=O)O)C(=O)O)[C@@H](C)O)[C@@H](C)CC [Compound 36] (H-H[Aib]EGTFTSELATILDEQAARDFINWLKSYKITD-OH) |
